# In US20060111289A1, “Compositions and methods of using Alpha-fetoprotein growth inhibitory peptides” (Serometrix, LLC,, priority 2004, published 2006):
# How the values were obtained:
# [1] = system: 6WI-1 mammary tumor cells; test: Mouse ascites mammary tumor assay (6WI-1 isograft); type: in vivo; conditions: for Suppression of accumulation of cells and ascites fluid volume (anticancer activity): 1.0 μg peptide per day for 11 days
# Procedure: The growth suppression of the mammary ascites tumor by AFP peptides and its fragments P149a, P149b and P149c, and control peptides were determined in non-estrogen dependent assays which measured tumor cell growth and ascites accumulation of 6WI-1 mammary transplanted NYLAR/nya mice. […] Tumor cell inocula included doses of 0.3, 1.0, and 3.0×10^6 cells which produced host mortality at 12-14 days which was lethal in 100% of the animals. Following peptide dose titration studies, mice inoculated with 6WI-1 mammary cells were injected with a previously-determined optimal dose of 1.0 μg peptide per day or saline for 11 days. On day 12 following inoculation, the total accumulated ascites fluid volume and tumor cells in the peritoneal cavity of each animal were harvested and the cell count determined.
# Inoculation of mice with all three cell doses led to an increase in body weight from 25 g (day 0) to approximately […] by day 12, due to the accumulation of tumor cells and ascites fluid in the intraperitoneal cavity. An average cell count in accumulated ascites fluid on day 12 was greater than 10^8 cells/ml with a total ascites volume approximating 20 mls. Tumor cell proliferation in this model has been reported to correlate with the volume of ascites fluid accumulated.
# The 6WI-1 mouse mammary tumor studies involving peptide and non-peptide treatment were further compared by histopathological analysis performed on hematoxylin/eosin stained tissue sections.
# [2] = system: LNCaP human prostate tumor cells; test: Whole-cell voltage clamp of LNCaP cells; type: cell-based; conditions: 10 μM
# Procedure: LNCaP human prostate tumor cells were cultured on 5×5 mm plastic coverslips and were transferred to a microperfusion chamber on the stage of an inverted microscope. Whole-cell voltage clamp was accomplished with an Axopatch 200B (Axon Instr. Co., Union City, Calif.) using ruptured patches. Borosilicate glass capillaries (1.2 mm OD, 0.68 ID, type EN-I, Garner Glass Co., Claremont, Calif.) were used to fabricate patch pipettes (3-8 MΩ in the bath solution) with a Brown-Flaming horizontal micropipette puller (P-87, Sutter Instruments, San Rafael, Calif.). Patch-pipette tips were heat-polished prior to use. A micromanipulator (Narishige) fixed to the microscope positioned the pipettes. Electrode capacitance and access resistance were compensated prior to measurements. All experiments will be performed at room temperature (20-22° C.). The standard extracellular salt solution for ion currents contained (in mM): 150 NaCl, 6 KCl, 1.5 CaCl2, 1 MgCl2, 10 HEPES, 10 glucose, and pH adjusted to 7.4 with 1 N NaOH. […] Electrophysiological recordings were procured and analyzed using PClamp8 software (Axon Instr. Co, Union City, Calif.) and the WinASCD software (Guy Droogmans, Katholieke Universiteit; Leuven, B E). All results were recorded on computer hard drive or on digital audio tape (DAT). […]
# [3] = system: 6WI-1 mammary tumor cells; test: 6WI-1 mammary tumor in 15-day old mouse pups (6 day assay); type: in vivo; design: % Inhibition Of Activity: 6WI-1 Pup Ascites: concentration or dose not given beside the values; conditions: mouse pups
# Excerpt: As an alternative model of the 6WI-I mammary tumor in adult mice, an inocula of 1×10^6 tumor cells injected into 15-day old mouse pups provided a 6 day rather than a 12 day assay and replicated the same tumor growth suppression by GIP.
# MCF-7 cells = test: Estrogen-dependent MCF-7 foci formation assay; type: cell-based, human; design: % Inhibition Of Activity: MCF-7 foci formation: concentration or dose not given beside the values
# Excerpt: Mizejewski et al., “Alpha-fetoprotein derived synthetic peptides: assay of an estrogen-modifying regulatory segment” Mol Cell Endocrinol 118:15-23 (1996). The P149 peptide inhibited the formation of tumor cell foci formed as a result of the accumulation of breast cancer cells which clump together due to loss of contact inhibition.
# human platelets = test: Platelet aggregation in human platelet-rich plasma; type: cell-based; design: % Inhibition Of Activity: Platelet Agg. ADP / % Inhibition Of Activity: Platelet Agg. AA / % Inhibition Of Activity: Platelet Agg. Coll: concentration or dose not given beside the values
# Procedure: FIG. 9 presents exemplary data showing platelet aggregation modulation using 0.5 ml of normal human platelet-rich plasma (PRP) with varying amounts of P149 or P 149b using 2.5×10^6 platelets per reaction vessel.
# FIG. 10 presents exemplary data showing platelet aggregation activation by arachidonic acid (AA) and collagen using P149-treated platelet suspensions • Panel A1: AA alone; • Panel A2: AA followed by epinephine (EPI) and EPI alone using P149b; • Panel A3: CD62P flow cytometry fluorescence quenching by P149; • Panel B1: collagen alone and collagen+P149; • Panel B2: collagen alone; collagen+P149a showing aggregation diminution.
# GIP-derived peptide fragments and/or subfragments have been assayed for platelet aggregation by measuring light transmissions with an aggregometer using a stirred human platelet suspension. Kinlough-Rathbone et al., In: Platelet Aggregation in Measurements of Platelet Function, Eds. Harker L A, Zimmerman T S., Churchill Livingstone, London. pp. 64-87 (1983); and Whittle et al., “Specificity between the anti-aggregatory actions of prostacyclin, prostaglandin Eland D2 on platelets” In: Mechanisms of stimulus—response coupling in platelets, Eds. V. V. K., MacIntyre D E, Scully M F., New York and London: Plenum Press. pp. 109-115 (1985).
# The ability of GIP and its fragments were individually examined for aggregation inhibition using citrated human platelet-rich plasma (PRP). The peptides were freshly dissolved in 0.15 M NaCl containing 2.5×10^6 platelets/ml. […]
# [4] = system: immature mouse uterine growth; test: E2-activated immature mouse uterine growth assay; type: in vivo; design: % Inhibition Of Activity: Uterine Growth: concentration or dose not given beside the values; conditions: mouse, in vivo
# Procedure: FIG. 3 presents exemplary data showing the growth suppressive activities of the oligomeric forms of P149, cyclic versus linear, are depicted in various in vitro and in vivo models. Biological activity was determined by three growth-dependent bioassays, namely; • Panel-A and A1) an immature rodent uterine bioassay; • Panel-B and B 1) an in vitro MCF-7 foci assay; • Panel-C and C1) an in vitro tumor cell cytostatic assessment. […] See text for details. Scrambled peptide=P327. […]
# [5] = system: MCF-7 and 6WI-1 tumor cells; test: Tumor cell adhesion to ECM proteins in microtiter plates; type: cell-based, human, murine
# Procedure: FIG. 8 presents exemplary data showing the inhibition of P149 in the cellular adhesion of cancer cells to extracellular matrix (ECM) proteins for both human MCF-7 breast cancer cells and for murine 6WI-1 ascites-adapted mammary tumor cells. The cellular adhesion assay was performed in 96-well microtiter plates (Nunc Company, Denmark, catalog #263339) and the wells were pre-coated with 100 microliters of each of the above-mentioned ECM proteins for 24 hours as previously determined. After adding tumor cells, the plates were then incubated at 37° C. for various times; while 6WI-1 cells usually required only 2-4 hours incubation for adhesion; MCF-7 cells required 24 hours for attachment following trypsinization. For both cell lines, the cell culture media contained 5% calf serum to ensure cell attachment. The plates were washed twice with Hank's Saline, fixed in 0.5 mL of 37% formaldehyde, stained with crystal violet and read at […] on a microplate reader. Inset: Using a CyQUANT® stain kit, (Hoechst Corp., Germany) the plates were first exposed to a freeze/thaw cycle at −70° C. for 24 hours and 37° C. for 10 minutes. CyQUANT® buffer solution (150 microliters) was added to each well, and the cell adhesion was measured by fluorescence spectroscopy and quantitated using an ImageQuant® plate scanner (Fluorimager 595, Molecular Dynamics, Sunnyvale, Calif.).
# This attachment of GIP was a slightly weaker adhesion matrix than was gelatin, chondroitin sulfate, and poly-lysine which approximated 30-35%. Using P149, the optimal amount of peptide required to inhibit tumor cell adhesion was determined by absorbing soluble peptide (1.0 pg to 100 μg) to the walls of microtiter plates. A constant number of MCF-7 tumor cells (i.e., for example, 1×10^5) were then added to the microtiter well and adhesion quantitated by fluorescence. […] The quantitation of MCF-7 and 6WI-1 cell adhesion in the presence of peptide versus peptide-free media was then determined on ECM-coated microtiter plates using 3 μg GIP/well as a competitive inhibitor. The P149 peptide was added to the wells immediately after the cells were dispensed and then the mixture was incubated as described. The AFP peptide was capable of cell adhesion inhibition in most of the ECM proteins in both tumor cell lines. Inhibition of mouse and human tumor cell adhesion was somewhat equivalent using collagen IV, fibrinogen, fibronectin, and thrombospondin. […] Thus, the GIP was found capable of eliciting different attachment inhibitions dependent on the type of ECM protein coating the wall of the microtiter plate and also the tumor cell type involved.
# Estrogen fetotoxicity = test: Estrogen fetotoxicity; design: concentration or dose not given beside the values; conditions: in vivo
# [6] = system: human kidney tumor cell line
# [7] = system: immature mouse uterine growth; test: E2-activated immature mouse uterine growth assay; type: in vivo; design: concentration or dose not given beside the values
# [8] = 1 × 10^6 tumor cells I.P., daily injections for eleven days, N = 5
# [9] = 6WI-1 mouse mammary ascites tumor
sequence,measurement,setting,value
GINHLPSDAVGTAIEVMPCLRDGKLCIGAEHIEL (listed as Homo sapiens) [P327],Suppression of accumulation of cells and ascites fluid volume (anticancer activity),[1],totally lacked anticancer activity
same,Metastatic histopathological findings: Abdominal Muscle,[1]; [8],Focal tumor infiltrate
same,Metastatic histopathological findings: Gross Findings,[1]; [8],Presence of tumor
same,Metastatic histopathological findings: Kidney,[1]; [8],No infiltrate
same,Metastatic histopathological findings: Liver,[1]; [8],No infiltrate
same,Metastatic histopathological findings: Pancreas,[1]; [8],Distinct presence of
same,Metastatic histopathological findings: Retro-peritoneal mesentery and fat,[1]; [8],Extensive tumor infiltrate
same,Metastatic histopathological findings: Spleen,[1]; [8],No infiltrate
same,Metastatic histopathological findings: Uterus + Ovary,[1]; [8],Tumor encased organ
same,"Metastatic tumor infiltration, histopathology summary","[1]; mouse, in vivo",high-to-moderate tumor infiltrates
same,Whole-cell membrane current,[2],no effect on membrane current
MTPVNPGV (listed as Homo sapiens) [P149c],Suppression of accumulation of cells and ascites fluid volume (anticancer activity),[1],significantly suppressed
same,% Inhibition Of Activity: 6WI-1 Acites Volume,[1]; [9],39%
same,% Inhibition Of Activity: 6WI-1 Body Weight,[1]; [9],44%
same,% Inhibition Of Activity: 6WI-1 Cell Prol,[1]; [9],45%
same,% Inhibition Of Activity: 6WI-1 Pup Ascites,[3],29%
same,% Inhibition Of Activity: MCF-7 foci formation,MCF-7 cells,45%
same,Inhibition of platelet aggregations induced by ADP and collagen,human platelets,no significant inhibition
same,% Inhibition Of Activity: Platelet Agg. ADP,human platelets; ADP-induced,0%
same,% Inhibition Of Activity: Platelet Agg. AA,human platelets; arachidonic acid-induced,0%
same,% Inhibition Of Activity: Platelet Agg. Coll,human platelets; collagen-induced,0%
same,Platelet aggregation inhibition,human platelets; inducer not specified,lack inhibitory capabilities
same,"Inhibition (%) Of Platelet Aggregation, Adenosine Diphosphate (ADP) 2.5 μM",human platelets; peptide inhibitors 30 & 100 μM,No effect
same,"Inhibition (%) Of Platelet Aggregation, Arachidonic Acid (AA) 0.3 mM",human platelets; peptide inhibitors 30 & 100 μM,No effect
same,"Inhibition (%) Of Platelet Aggregation, Collagen (COLL) 2 μg/ml",human platelets; peptide inhibitors 30 & 100 μM,No effect
same,"Inhibition (%) Of Platelet Aggregation, Epinephrine",human platelets; peptide inhibitors 30 & 100 μM,No effect
same,% Inhibition Of Activity: Uterine Growth,[4],42%
same,% Inhibition Of Activity: Cell Adhesion,[5],56%
same,% Inhibition Of Activity: Estrogen Fetotoxicty,Estrogen fetotoxicity,37%
same,% Inhibition Of Activity: Kidney tumor growth,[6],19%
same,"% Inhibition Of Activity: Uterine Growth, Enzymatic Fragments",[7],44%
